Data published in PubChem BioAssay AID1919007 (Molecular Pharmacology Branch, DTP, NCI, 2023).

Tested on: A498 complex spheroids with HUVEC/MSC, growth
Assay: Anticancer human tumor A498 cell line growth inhibition [AhR];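 further: seven day exposure starting three days after spheroid seeding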;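 on viability, T/C: luminescence signal used as a surrogate for viable cells; luminescence viability scaled so 100% equals DMSO vehicle wells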
Details: for IC50: curve of first compound; for viability, T/C: stronger effect = lower value
Procedure, shortened: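 Spheroids combined tumor cells with HUVEC endothelial cells and human MSCs as stroma. AhR antagonists were paired with standard or investigational drugs, each dosed in half-log steps down from near clinical Cmax, or from 10 microM where Cmax was unknown.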

SMILES: CC[C@@]1(O)C(=O)OCc2c1cc1n(c2=O)Cc2cc3c(CN(C)C)c(O)ccc3nc2-1 + Cc1ccccc1N=Nc1ccc(NC(=O)c2ccnn2C)c(C)c1
- IC50 (second compound 0.1 µM): > 100 nM
- IC50 (second compound 0.316 µM): > 100 nM
- IC50 (second compound 1 µM): > 100 nM
- IC50 (second compound 3.16 µM): > 100 nM
- IC50 (second compound 10 µM): > 100 nM
- viability, T/C (second compound 0.1 µM, first compound 0.000316 µM): 88.9%
- viability, T/C (second compound 0.1 µM, first compound 0.001 µM): 93.4%
- viability, T/C (second compound 0.1 µM, first compound 0.00316 µM): 87.9%
- viability, T/C (second compound 0.1 µM, first compound 0.01 µM): 80.7%
- viability, T/C (second compound 0.1 µM, first compound 0.0316 µM): 75.7%
- viability, T/C (second compound 0.1 µM, first compound 0.1 µM): 74.7%
- viability, T/C (second compound 0.316 µM, first compound 0.000316 µM): 90.7%
- viability, T/C (second compound 0.316 µM, first compound 0.001 µM): 99.7%
- viability, T/C (second compound 0.316 µM, first compound 0.00316 µM): 92.8%
- viability, T/C (second compound 0.316 µM, first compound 0.01 µM): 81%
- viability, T/C (second compound 0.316 µM, first compound 0.0316 µM): 74.3%
- viability, T/C (second compound 0.316 µM, first compound 0.1 µM): 74.2%
- viability, T/C (second compound 1 µM, first compound 0.000316 µM): 87.5%
- viability, T/C (second compound 1 µM, first compound 0.001 µM): 92.7%
- viability, T/C (second compound 1 µM, first compound 0.00316 µM): 86.9%
- viability, T/C (second compound 1 µM, first compound 0.01 µM): 68%
- viability, T/C (second compound 1 µM, first compound 0.0316 µM): 71.5%
- viability, T/C (second compound 1 µM, first compound 0.1 µM): 66.5%
- viability, T/C (second compound 3.16 µM, first compound 0.000316 µM): 87.3%
- viability, T/C (second compound 3.16 µM, first compound 0.001 µM): 90.4%
- viability, T/C (second compound 3.16 µM, first compound 0.00316 µM): 87.7%
- viability, T/C (second compound 3.16 µM, first compound 0.01 µM): 74.7%
- viability, T/C (second compound 3.16 µM, first compound 0.0316 µM): 69.8%
- viability, T/C (second compound 3.16 µM, first compound 0.1 µM): 64.2%
- viability, T/C (second compound 10 µM, first compound 0.000316 µM): 84%
- viability, T/C (second compound 10 µM, first compound 0.001 µM): 84.7%
- viability, T/C (second compound 10 µM, first compound 0.00316 µM): 89.1%
- viability, T/C (second compound 10 µM, first compound 0.01 µM): 76.5%
- viability, T/C (second compound 10 µM, first compound 0.0316 µM): 78%
- viability, T/C (second compound 10 µM, first compound 0.1 µM): 63.4%

SMILES: CCc1c2c(nc3ccc(O)cc13)-c1cc3c(c(=O)n1C2)COC(=O)[C@]3(O)CC + Cc1ccccc1N=Nc1ccc(NC(=O)c2ccnn2C)c(C)c1
- IC50 (second compound 0.1 µM): 57.6 nM
- IC50 (second compound 0.316 µM): 71.1 nM
- IC50 (second compound 1 µM): 52.1 nM
- IC50 (second compound 3.16 µM): 44.2 nM
- IC50 (second compound 10 µM): 60.4 nM
- viability, T/C (second compound 0.1 µM, first compound 0.000949 µM): 89.2%
- viability, T/C (second compound 0.1 µM, first compound 0.003 µM): 78.2%
- viability, T/C (second compound 0.1 µM, first compound 0.00949 µM): 72.8%
- viability, T/C (second compound 0.1 µM, first compound 0.03 µM): 55.9%
- viability, T/C (second compound 0.1 µM, first compound 0.0949 µM): 44.1%
- viability, T/C (second compound 0.1 µM, first compound 0.3 µM): 38.8%
- viability, T/C (second compound 0.316 µM, first compound 0.000949 µM): 84.9%
- viability, T/C (second compound 0.316 µM, first compound 0.003 µM): 83.5%
- viability, T/C (second compound 0.316 µM, first compound 0.00949 µM): 80.3%
- viability, T/C (second compound 0.316 µM, first compound 0.03 µM): 61.6%
- viability, T/C (second compound 0.316 µM, first compound 0.0949 µM): 45.4%
- viability, T/C (second compound 0.316 µM, first compound 0.3 µM): 45%
- viability, T/C (second compound 1 µM, first compound 0.000949 µM): 83.1%
- viability, T/C (second compound 1 µM, first compound 0.003 µM): 85.9%
- viability, T/C (second compound 1 µM, first compound 0.00949 µM): 78%
- viability, T/C (second compound 1 µM, first compound 0.03 µM): 58.2%
- viability, T/C (second compound 1 µM, first compound 0.0949 µM): 38.8%
- viability, T/C (second compound 1 µM, first compound 0.3 µM): 43.6%
- viability, T/C (second compound 3.16 µM, first compound 0.000949 µM): 86.9%
- viability, T/C (second compound 3.16 µM, first compound 0.003 µM): 78.7%
- viability, T/C (second compound 3.16 µM, first compound 0.00949 µM): 76.2%
- viability, T/C (second compound 3.16 µM, first compound 0.03 µM): 54.5%
- viability, T/C (second compound 3.16 µM, first compound 0.0949 µM): 40%
- viability, T/C (second compound 3.16 µM, first compound 0.3 µM): 34.8%
- viability, T/C (second compound 10 µM, first compound 0.000949 µM): 84.3%
- viability, T/C (second compound 10 µM, first compound 0.003 µM): 79.5%
- viability, T/C (second compound 10 µM, first compound 0.00949 µM): 77.8%
- viability, T/C (second compound 10 µM, first compound 0.03 µM): 62.2%
- viability, T/C (second compound 10 µM, first compound 0.0949 µM): 41.4%
- viability, T/C (second compound 10 µM, first compound 0.3 µM): 39.4%
